Where “and” joins values, the source holds several entries; their conditions need not be identical. Equal entries are not always repeated.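 Values below derive from 48-hour exposures of cells grown in 96-well plates, with endpoints linearly interpolated between the two concentrations bracketing the appropriate inhibition level. GI50 is the concentration that inhibits growth by half. TGI: total growth inhibition.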
Assays:
Experiment in all cases: NCI-60 cell line screen, 48 h
CAKI-1 renal = system: CAKI-1 renal
HL-60(TB) leukemia = system: HL-60(TB) leukemia
HOP-62 NSCLC = system: HOP-62 NSCLC
KM12 colon = system: KM12 colon
MALME-3M melanoma = system: MALME-3M melanoma
NCI/ADR-RES ovarian = system: NCI/ADR-RES ovarian
SK-MEL-2 melanoma = system: SK-MEL-2 melanoma
SK-OV-3 ovarian = system: SK-OV-3 ovarian
SR leukemia = system: SR leukemia
UACC-257 melanoma = system: UACC-257 melanoma

| Structure (SMILES) | GI50 (CAKI-1 renal) | TGI (CAKI-1 renal) | GI50 (HL-60(TB) leukemia) | TGI (HL-60(TB) leukemia) | GI50 (HOP-62 NSCLC) | TGI (HOP-62 NSCLC) | GI50 (KM12 colon) | TGI (KM12 colon) | TGI (MALME-3M melanoma) | GI50 (NCI/ADR-RES ovarian) | TGI (NCI/ADR-RES ovarian) | GI50 (SK-MEL-2 melanoma) | TGI (SK-MEL-2 melanoma) | GI50 (SK-OV-3 ovarian) | TGI (SK-OV-3 ovarian) | GI50 (SR leukemia) | TGI (SR leukemia) | GI50 (UACC-257 melanoma) | TGI (UACC-257 melanoma) | GI50 (MALME-3M melanoma) |
| --- | --- | --- | --- | --- | --- | --- | --- | --- | --- | --- | --- | --- | --- | --- | --- | --- | --- | --- | --- | --- |
| COc1cc(O)c2c(c1)C(=O)c1cc3c(c(O)c1C2=O)C(OC1OC(C)C(O)C(O)C1OC)C(OC)C(C)(O)C3=O (stereo not drawn) | 1.99 µM and 0.671 µM | 6.82 µM and 4.95 µM | 3.44 µM and 6.26 µM | 17.6 µM and 24.3 µM | 2.92 µM | 26.1 µM and 9.56 µM | 3.11 µM and 2.33 µM | 17.9 µM and 7.92 µM | 2.54 µM and 2.65 µM | 2.86 µM | 15.8 µM and 11 µM | 2.49 µM | 6.52 µM and 9.1 µM | 5.2 µM | 52 µM and 34.8 µM | 2.16 µM | > 100 µM | 1.98 µM | 5.25 µM and 2.5 µM |  |
| CNC(=O)Oc1cc(C)c(/C=C/c2cncc(C(=O)NC)c2)c(C)c1 | > 25 µM | > 25 µM | > 21.2 µM | > 25 µM | > 22.3 µM | > 25 µM | > 25 µM | > 25 µM | > 25 µM | > 25 µM | > 25 µM | > 25 µM | > 25 µM | > 25 µM | > 25 µM | > 20.4 µM | > 25 µM | 24.7 µM | > 25 µM | 13.6 µM |
| CCOC(=O)/C(=C(/C)NCC(C)C)c1cc(O)c(O)c2c(C)cc(=O)[nH]c12 | 5.17 µM | > 100 µM | 2.63 µM | > 100 µM | 10.3 µM | 37 µM | 12.4 µM | > 100 µM | 70.8 µM | 2.42 µM | 95.7 µM | 5.92 µM | > 100 µM | 13 µM | > 100 µM | 4.02 µM | > 100 µM | 14.3 µM | > 100 µM | 11.4 µM |
| COc1ccc(OC)c(-c2cc(=O)c3c(OC)c(OC)c(OC)c(OC)c3o2)c1 |  | > 100 µM |  | > 100 µM |  | 79.5 µM |  |  | > 100 µM |  | 82.8 µM |  | 49.3 µM |  | 98.7 µM |  | > 100 µM |  | > 100 µM |  |
| COC(=O)[C@H](Cc1ccc(O)cc1)NC(=O)[C@@H](OC)[C@@H]1Cc2cc3cc(OC4CC(OC5CC(O)C(O)C(C)O5)C(O)C(C)O4)c(C)c(O)c3c(O)c2C(=O)[C@H]1OC1CC(OC2CC(OC3CC(C)(O)C(O)C(C)O3)C(O)C(C)O2)C(O)C(C)O1 (stereo partly drawn) | 0.45 µM | > 25 µM | 0.614 µM | > 25 µM | 0.106 µM | > 25 µM | 0.106 µM | > 25 µM | 0.492 µM | > 25 µM | > 25 µM | 0.1 µM | 0.748 µM | 0.185 µM | > 25 µM | 0.0163 µM | > 25 µM | 0.124 µM | 4.39 µM | 0.0397 µM |
| C/C(=C\COc1c2c(cc3c1CCO3)OC1(C=C2)OC(CC/C(C)=C/COc2c3ccoc3cc3oc(=O)ccc23)C(C)(C)O1)CCC(O)C(C)(C)O (stereo not drawn) | 8.07 µM | > 100 µM | 3.61 µM | 20.9 µM | > 100 µM | > 100 µM | 11.7 µM | > 100 µM | > 100 µM | 23.8 µM | > 100 µM | 9.58 µM | > 100 µM | > 100 µM | > 100 µM | 5.04 µM | > 100 µM | 25.3 µM | > 100 µM | 68.7 µM |

Source: PubChem BioAssay (NCI)
